Assay results: patent US10463644B2, “Uses of sesquiterpene lactone compounds and their derivatives in drugs preparation” (ACCENDATECH, priority 2013, dated 2019)
Like-named read-outs stand apart in the source and are kept apart here.

Assays:
[1] = tested on: TNF-α secreted by synoviocyte; assay: Content of TNF-α in culture supernatant of synoviocyte of RA model rats given test compound; type: in vivo; conditions: rat RA model, dose 30 mg/kg.2d; normal control 0.38 ± 0.027, NaCl 0.74 ± 0.098
Procedure, shortened: (§1)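 Read-out: TNF-α, PGE2 and IL-1β levels in supernatant from cultured synoviocytes. Cells came from RA model rats treated with compound at 30 mg/kg.2d, and from NaCl-treated and normal control rats.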

[2] = tested on: IL-1β secreted by synoviocyte; assay: Content of IL-1β in culture supernatant of synoviocyte of RA model rats given test compound; type: in vivo; conditions: rat RA model, dose 30 mg/kg.2d; normal control 0.16 ± 0.034, NaCl 0.49 ± 0.136
Procedure, shortened: as §1

cancer stem cells = assay: Survival rate of cancer stem cells after test compound is added (flow cytometry, Annexin V-FITC/PI, clinical specimen); type: cell-based, patient; conditions: Homo sapiens, 18 h
Procedure, shortened: (§2)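 Steps: density-gradient isolation of mononuclear cells from fresh or cryopreserved clinical samples; 18-hour compound exposure at 1×10^6 cells/mL; staining for stem-cell surface markers, then Annexin V-FITC and PI; flow cytometric apoptosis analysis.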

cancer cells = assay: Survival rate of cancer cells after test compound is added (flow cytometry, Annexin V-FITC/PI, clinical specimen); type: cell-based, patient; conditions: Homo sapiens, 18 h, read-out: Survival rate (%) All cells (Stem cells and ordinary cells)
Procedure, shortened: as §2

normal cells = assay: Survival rate of normal cells after test compound is added (flow cytometry, Annexin V-FITC/PI); type: cell-based; conditions: 18 h
Procedure, shortened: as §2

[3] = Head and neck squamous cell carcinomas
[4] = read-out: Survival rate (%) All cells (Stem cells and ordinary cells)
[5] = read-out: Survival rate (%) Stem cells

## C=C1C(=O)O[C@H]2[C@H]1CCC(C)=C1CC[C@@](C)(OC(=O)CCCc3cn(CCCCCCO)nn3)[C@@H]12 [Compound 21]
[1]
  Content of TNF-α in culture supernatant of synoviocyte (x ± s): 0.56 ± 0.034 ng/mL
[2]
  Content of IL-1β in culture supernatant of synoviocyte (x ± s): 0.36 ± 0.057 ng/mL
Cancer stem cells; AML
  viability at 10 µM: 66%
  viability at 20 µM: 47%
Cancer stem cells; Brain glioma
  viability at 10 µM: 68%
  viability at 20 µM: 53%
Cancer stem cells; Brain tumor
  viability at 10 µM: 65%
  viability at 20 µM: 54%
Cancer stem cells; Breast cancer
  viability at 10 µM: 62%
  viability at 20 µM: 55%
Cancer stem cells; CLL
  viability at 10 µM: 51%
  viability at 20 µM: 48%
Cancer stem cells; CML
  viability at 10 µM: 75%
  viability at 20 µM: 56%
Cancer stem cells; Children hepatoblastoma
  viability at 10 µM: 74%
  viability at 20 µM: 57%
Cancer stem cells; Colon adenocarcinoma
  viability at 10 µM: 58%
  viability at 20 µM: 44%
Cancer stem cells; Colorectal cancer
  viability at 10 µM: 73%
  viability at 20 µM: 58%
Cancer stem cells; Gastric cancer
  viability at 10 µM: 56%
  viability at 20 µM: 45%
Cancer stem cells; Gastrointestinal tumor
  viability at 10 µM: 64%
  viability at 20 µM: 46%
Cancer stem cells; Glioma
  viability at 10 µM: 78%
  viability at 20 µM: 67%
Cancer stem cells; [3]
  viability at 10 µM: 75%
  viability at 20 µM: 66%
Cancer stem cells; Laryngeal cancer
  viability at 10 µM: 66%
  viability at 20 µM: 52%
Cancer stem cells; Liver cancer
  viability at 10 µM: 64%
  viability at 20 µM: 55%
Cancer stem cells; Lung adenocarcinoma
  viability at 10 µM: 58%
  viability at 20 µM: 49%
Cancer stem cells; Lung cancer
  viability at 10 µM: 63%
  viability at 20 µM: 54%
Cancer stem cells; Malignant melanoma
  viability at 10 µM: 59%
  viability at 20 µM: 45%
Cancer stem cells; Nasopharynx cancer
  viability at 10 µM: 55%
  viability at 20 µM: 42%
Cancer stem cells; Ovarian cancer
  viability at 10 µM: 56%
  viability at 20 µM: 49%
Cancer stem cells; Pancreatic cancer
  viability at 10 µM: 57%
  viability at 20 µM: 50%
Cancer stem cells; Prostate cancer
  viability at 10 µM: 68%
  viability at 20 µM: 57%
Cancer stem cells; Retinoblastoma
  viability at 10 µM: 56%
  viability at 20 µM: 47%
Cancer stem cells; Skin cancer
  viability at 10 µM: 56%
  viability at 20 µM: 47%
Cancer cells; AML
  viability at 10 µM: 75%
  viability at 20 µM: 56%
Cancer cells; Brain glioma
  viability at 10 µM: 79%
  viability at 20 µM: 68%
Cancer cells; Brain tumor
  viability at 10 µM: 75%
  viability at 20 µM: 62%
Cancer cells; Breast cancer
  viability at 10 µM: 72%
  viability at 20 µM: 66%
Cancer cells; CLL
  viability at 10 µM: 63%
  viability at 20 µM: 62%
Cancer cells; CML
  viability at 10 µM: 82%
  viability at 20 µM: 69%
Cancer cells; Children hepatoblastoma
  viability at 10 µM: 81%
  viability at 20 µM: 66%
Cancer cells; Colon adenocarcinoma
  viability at 10 µM: 71%
  viability at 20 µM: 56%
Cancer cells; Colorectal cancer
  viability at 10 µM: 78%
  viability at 20 µM: 67%
Cancer cells; Gastric cancer
  viability at 10 µM: 67%
  viability at 20 µM: 55%
Cancer cells; Gastrointestinal tumor
  viability at 10 µM: 75%
  viability at 20 µM: 58%
Cancer cells; Glioma
  viability at 10 µM: 87%
  viability at 20 µM: 78%
Cancer cells; [3]
  viability at 10 µM: 86%
  viability at 20 µM: 82%
Cancer cells; Laryngeal cancer
  viability at 10 µM: 73%
  viability at 20 µM: 61%
Cancer cells; Liver cancer
  viability at 10 µM: 77%
  viability at 20 µM: 61%
Cancer cells; Lung adenocarcinoma
  viability at 10 µM: 67%
  viability at 20 µM: 64%
Cancer cells; Lung cancer
  viability at 10 µM: 74%
  viability at 20 µM: 68%
Cancer cells; Malignant melanoma
  viability at 10 µM: 69%
  viability at 20 µM: 56%
Cancer cells; Nasopharynx cancer
  viability at 10 µM: 65%
  viability at 20 µM: 56%
Cancer cells; Ovarian cancer
  viability at 10 µM: 64%
  viability at 20 µM: 57%
Cancer cells; Pancreatic cancer
  viability at 10 µM: 66%
  viability at 20 µM: 62%
Cancer cells; Prostate cancer
  viability at 10 µM: 77%
  viability at 20 µM: 65%
Cancer cells; Retinoblastoma
  viability at 10 µM: 65%
  viability at 20 µM: 59%
Cancer cells; Skin cancer
  viability at 10 µM: 64%
  viability at 20 µM: 57%
Normal cells; [4]
  viability at 10 µM: 95%
  viability at 20 µM: 94%
Normal cells; [5]
  viability at 10 µM: 94%
  viability at 20 µM: 92%
